{"source": "paper PMC7707092", "about": "“Discovery and characterization of ORM‐11372, a novel inhibitor of the sodium‐calcium exchanger with positive inotropic activity” (British Journal of Pharmacology, 2020)", "key": {"[1]": {"biological_target": "T1, L‐type Ca^2+ channel current (I CaL) (Rattus norvegicus, UniProt P22002)", "T1 construct": "the inward calcium current (ICaL) in isolated rat cardiomyocytes; endogenous in cells; host or cells: freshly isolated left ventricular cardiomyocytes of male Wistar rats", "T1 sequence (P22002 whole entry, other chains not shown)": "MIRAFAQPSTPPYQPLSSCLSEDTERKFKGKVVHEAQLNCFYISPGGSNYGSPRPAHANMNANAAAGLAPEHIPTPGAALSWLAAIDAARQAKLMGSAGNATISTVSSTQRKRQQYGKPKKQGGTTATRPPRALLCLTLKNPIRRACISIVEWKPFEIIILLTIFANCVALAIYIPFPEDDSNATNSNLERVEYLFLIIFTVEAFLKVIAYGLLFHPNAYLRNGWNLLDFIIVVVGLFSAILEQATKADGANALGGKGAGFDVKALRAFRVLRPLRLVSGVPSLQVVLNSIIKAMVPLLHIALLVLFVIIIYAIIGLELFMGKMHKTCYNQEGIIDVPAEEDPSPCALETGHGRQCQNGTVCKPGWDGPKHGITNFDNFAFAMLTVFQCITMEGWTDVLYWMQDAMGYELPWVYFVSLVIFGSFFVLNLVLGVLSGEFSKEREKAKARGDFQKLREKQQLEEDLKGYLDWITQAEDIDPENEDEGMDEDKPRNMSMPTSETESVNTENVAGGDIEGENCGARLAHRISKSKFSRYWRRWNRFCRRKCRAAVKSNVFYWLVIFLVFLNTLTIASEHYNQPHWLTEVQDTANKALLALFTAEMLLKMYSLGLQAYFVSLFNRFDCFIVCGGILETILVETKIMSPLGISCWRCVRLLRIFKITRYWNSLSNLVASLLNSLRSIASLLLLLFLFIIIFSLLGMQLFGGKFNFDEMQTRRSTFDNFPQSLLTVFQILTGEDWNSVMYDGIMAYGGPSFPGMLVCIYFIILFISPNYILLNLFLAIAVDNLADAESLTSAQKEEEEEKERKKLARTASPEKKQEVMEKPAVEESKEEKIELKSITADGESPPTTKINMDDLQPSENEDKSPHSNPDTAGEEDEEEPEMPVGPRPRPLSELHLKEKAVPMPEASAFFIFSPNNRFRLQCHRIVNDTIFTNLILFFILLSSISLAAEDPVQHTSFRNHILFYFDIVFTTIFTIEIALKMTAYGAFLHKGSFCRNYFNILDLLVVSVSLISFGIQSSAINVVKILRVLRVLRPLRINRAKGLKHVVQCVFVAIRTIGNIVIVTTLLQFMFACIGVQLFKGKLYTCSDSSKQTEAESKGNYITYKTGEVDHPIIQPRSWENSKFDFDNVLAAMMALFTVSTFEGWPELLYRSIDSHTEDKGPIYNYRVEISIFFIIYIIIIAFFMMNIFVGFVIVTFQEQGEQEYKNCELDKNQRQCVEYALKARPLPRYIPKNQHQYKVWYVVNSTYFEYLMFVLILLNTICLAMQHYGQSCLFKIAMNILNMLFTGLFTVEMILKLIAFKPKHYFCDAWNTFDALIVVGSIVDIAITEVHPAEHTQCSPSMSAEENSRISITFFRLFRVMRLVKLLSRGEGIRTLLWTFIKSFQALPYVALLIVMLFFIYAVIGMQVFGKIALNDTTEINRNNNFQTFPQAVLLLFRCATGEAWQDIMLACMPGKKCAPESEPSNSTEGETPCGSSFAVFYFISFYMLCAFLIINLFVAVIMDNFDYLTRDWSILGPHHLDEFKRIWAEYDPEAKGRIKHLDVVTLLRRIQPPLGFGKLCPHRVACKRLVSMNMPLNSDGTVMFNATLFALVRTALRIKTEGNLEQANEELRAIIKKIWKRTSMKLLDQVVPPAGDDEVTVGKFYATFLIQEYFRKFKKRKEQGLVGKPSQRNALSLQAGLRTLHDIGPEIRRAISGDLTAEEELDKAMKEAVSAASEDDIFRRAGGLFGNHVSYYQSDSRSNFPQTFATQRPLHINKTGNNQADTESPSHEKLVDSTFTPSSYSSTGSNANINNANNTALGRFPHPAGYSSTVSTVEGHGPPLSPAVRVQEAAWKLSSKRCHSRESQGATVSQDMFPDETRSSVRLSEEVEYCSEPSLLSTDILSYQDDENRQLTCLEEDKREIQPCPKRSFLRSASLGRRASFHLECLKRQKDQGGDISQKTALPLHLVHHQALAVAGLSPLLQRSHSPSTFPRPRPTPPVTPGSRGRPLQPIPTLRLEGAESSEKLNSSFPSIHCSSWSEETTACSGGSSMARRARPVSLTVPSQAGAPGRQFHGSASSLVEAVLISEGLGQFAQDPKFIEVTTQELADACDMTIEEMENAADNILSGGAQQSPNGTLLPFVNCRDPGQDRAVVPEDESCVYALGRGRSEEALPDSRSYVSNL", "T1 sequence (P54290 25-1091 partner, other chains not shown)": "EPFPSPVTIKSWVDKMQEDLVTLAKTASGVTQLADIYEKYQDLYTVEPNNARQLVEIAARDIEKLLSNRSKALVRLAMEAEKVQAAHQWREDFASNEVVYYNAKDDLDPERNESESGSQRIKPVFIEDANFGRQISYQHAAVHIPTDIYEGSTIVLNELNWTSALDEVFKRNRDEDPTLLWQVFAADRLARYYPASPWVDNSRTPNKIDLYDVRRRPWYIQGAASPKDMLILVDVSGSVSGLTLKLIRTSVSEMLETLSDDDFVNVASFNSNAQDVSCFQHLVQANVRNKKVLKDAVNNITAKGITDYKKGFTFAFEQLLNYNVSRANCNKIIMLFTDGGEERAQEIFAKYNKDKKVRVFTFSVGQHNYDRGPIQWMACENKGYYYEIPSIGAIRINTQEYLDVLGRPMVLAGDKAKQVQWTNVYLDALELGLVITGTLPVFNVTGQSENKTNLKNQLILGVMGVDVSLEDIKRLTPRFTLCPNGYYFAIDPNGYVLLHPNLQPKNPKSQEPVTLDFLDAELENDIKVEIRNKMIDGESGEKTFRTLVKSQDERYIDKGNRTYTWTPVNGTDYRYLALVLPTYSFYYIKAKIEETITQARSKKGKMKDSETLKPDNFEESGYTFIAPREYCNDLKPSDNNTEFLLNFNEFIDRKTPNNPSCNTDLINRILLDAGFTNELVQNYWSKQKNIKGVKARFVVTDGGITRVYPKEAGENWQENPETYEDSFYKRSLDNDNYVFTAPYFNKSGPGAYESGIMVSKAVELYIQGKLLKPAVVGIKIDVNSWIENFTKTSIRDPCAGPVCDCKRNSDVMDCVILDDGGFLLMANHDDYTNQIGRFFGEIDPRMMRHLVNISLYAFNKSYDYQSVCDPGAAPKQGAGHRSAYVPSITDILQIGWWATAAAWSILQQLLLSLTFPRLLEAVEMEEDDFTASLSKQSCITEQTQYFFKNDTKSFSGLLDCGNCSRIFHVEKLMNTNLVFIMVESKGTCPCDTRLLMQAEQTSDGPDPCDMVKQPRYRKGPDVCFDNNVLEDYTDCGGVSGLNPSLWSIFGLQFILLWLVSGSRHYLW", "assay": "L‐type calcium current (I CaL), patch‐clamp in rat ventricular myocytes", "type": "cell-based", "conditions": "for effect on calcium current (ICaL) at various test potentials: rat cardiomyocytes; for inhibition at 10 µM: rat ventricular CMs", "source_text": "Manual patch‐clamp recordings of membrane currents (I NCX, L‐type Ca^2+ channel current [I CaL], human cardiac sodium 1.5 current [I Na], and I hERG) were undertaken using either an Axopatch 200B or Axopatch ID amplifier (Molecular Devices, USA), using the whole‐cell configuration. Cells were at least initially (except when recording I Na) perfused with an extracellular solution consisting of (in mM) 143 NaCl, 4 KCl, 1.8 CaCl2, 1.2 MgCl2, 5 glucose, and 10 HEPES (pH 7.4 with NaOH; osmolarity adjusted to 301 ± 3 mOsm). A slightly modified version was used for the rat ventricular CMs (in mM: 144 NaCl, 0.4 NaH2PO4, 4.0 KCl, 1.8 CaCl2, 0.53 MgSO4, 5.5 glucose, and 5.0 HEPES). Patch pipettes were pulled with a P‐2000 or P‐97 micropipette puller (Sutter Instruments, USA) from borosilicate glass capillaries and had resistances of between 2 and 4 MΩ when filled with any of the pipette solutions (see below). The data were filtered at 1 or 2 kHz and digitized at 10 kHz with acquisition and analysis performed by use of pClamp software (Versions 8–10; Molecular Devices; RRID:SCR_011323).\nI CaL was recorded from hiPSC‐derived CMs (at room temperature, n = 2) and rat ventricular myocytes at 1 μM (n = 3; 5 cells) and at 10 μM (n = 4; 6 cells) in an extracellular solution supplemented with 4‐aminopyridine (3 mM) at 37 °C. The pipette solution used for hiPSC‐derived CMs consisted (in mM) (pH 7.2; osmolarity adjusted to 293 mOsm) 110 KCl, 40 KOH, 20 TEACI, 3 MgATP, 10 EGTA, and 5 HEPES. The composition of the pipette solution used for rat CMs was (in mM) 125 CsCl, 20 TEACI, 5 MgATP, 10 EGTA, and 10 HEPES; the pH was adjusted to 7.2 using CsOH. I CaL was evoked by a 400‐ms depolarization process to 0 mV from a holding potential of −40 mV every 5 s or, in the case of the rat CMs, by 400 ms; depolarizations to potentials ranging from −35 to 55 mV occurred after a prepulse to −40 mV, from the holding potential of −80 mV.\nThe effect of ORM-11372 on the inward calcium current (ICaL) in isolated rat cardiomyocytes. ICaL current was evoked by 400 ms-long depolarizing voltage pulses to various test potentials, ranging from -35 mV to 55 mV. The holding potential was -80 mV. A short prepulse to -40 mV served to inactivate the Na+ current (the top part of the panel A). Examples of originals currents are shown in the lower part of panel A, before and after 1 µM ORM-11372 exposure in an isolated rat myocyte. Panels B and C illustrate the current-voltage relation (I-V curves) of ICaL in the absence and presence of 1 µM and 10 µM ORM-11372 (panels B and C, […]\nare means ± standard errors of the means.\n(1 picture or pasted object on this page, not shown here)"}, "[2]": {"tested_on": "guinea pig papillary muscle", "assay": "In vitro contraction dynamics in guinea pig papillary muscle", "conditions": "1 Hz, 37°C", "source_text": "Guinea pigs (both sex, body weight ranging 342–565 g, Dunkin Hartley, M&B A/S, Ry, Denmark) were used in the study. The animals were housed in solid bottom polycarbonate cages (Makrolon® IV, 385 × 590 × 200 mm) with stainless steel wire mesh lids, up to three animals of same sex per cage. Autoclaved aspen chips (Tapvei Ky, Kaavi, Finland) were used as bedding. A commercially available rodent SDS FD1 (P) SQC pellet diet (Special Diet Services Ltd, Witham, England) and tap water from the public supply (Espoon vesilaitos, Espoo, Finland) were available ad libitum in polycarbonate bottles (800–1,000 ml) with plastic caps (Scanbur A/S, Ejby, Denmark).\nGuinea pigs were killed by a blow on the skull and the heart will be excised. Right ventricular papillary muscle was dissected and rinsed in ice‐cold Tyrode's solution. […]\nThe signal was acquired with a validated acquisition system ACFO v1.0 (Fision Oy, Finland). The following parameters were measured: twitch tension (Tw), rest tension (RT), time to peak tension (TTP), and half relaxation time (HRT). […]\nThe baseline twitch tensions were measured after a stabilization period of 20–40 min. Thereafter, vehicle (1.1% DMSO) or ORM‐11372 in Tyrode's solution was superfused into the cuvette for 15 min, and the effects were measured from the steady‐state level. […]"}}, "note": "Entries after “also recorded” stand apart in the source; their conditions may differ.", "data": [{"molecule": "Nc1cccc(-c2ccc(CNc3ccc(F)cc3)o2)c1", "note": "[ORM‐11372]", "values": [{"measurement": "effect on calcium current (ICaL) at various test potentials", "setting": "[1]; 1 µM, n=3, 5 cells", "value": "did not change"}, {"measurement": "L-type calcium current amplitude, MEAN", "setting": "[1]; 1 µM, test potential 0 mV, 5 cells, control -1375.4", "value": -1268.0, "unit": "pA"}, {"measurement": "L-type calcium current amplitude, MEAN", "setting": "[1]; 1 µM, test potential 5 mV, 5 cells, control -1319.9", "value": -1233.1, "unit": "pA"}, {"measurement": "L-type calcium current amplitude, MEAN", "setting": "[1]; 1 µM, test potential 10 mV, 5 cells, control -1195.5", "value": -1106.0, "unit": "pA"}, {"measurement": "L-type calcium current amplitude, MEAN", "setting": "[1]; 1 µM, test potential 15 mV, 5 cells, control -1031.3", "value": -942.5, "unit": "pA"}, {"measurement": "L-type calcium current amplitude, MEAN", "setting": "[1]; 1 µM, test potential 20 mV, 5 cells, control -839.7", "value": -771.6, "unit": "pA"}, {"measurement": "L-type calcium current amplitude, MEAN", "setting": "[1]; 1 µM, test potential 25 mV, 5 cells, control -655.3", "value": -598.7, "unit": "pA"}, {"measurement": "L-type calcium current amplitude, MEAN", "setting": "[1]; 1 µM, test potential 30 mV, 5 cells, control -482.4", "value": -440.5, "unit": "pA"}, {"measurement": "L-type calcium current amplitude, MEAN", "setting": "[1]; 1 µM, test potential 35 mV, 5 cells, control -321.0", "value": -290.5, "unit": "pA"}, {"measurement": "L-type calcium current amplitude, MEAN", "setting": "[1]; 1 µM, test potential 40 mV, 5 cells, control -184.5", "value": -165.5, "unit": "pA"}, {"measurement": "L-type calcium current amplitude, MEAN", "setting": "[1]; 1 µM, test potential 45 mV, 5 cells, control -86.9", "value": -75.9, "unit": "pA"}, {"measurement": "L-type calcium current amplitude, MEAN", "setting": "[1]; 1 µM, test potential 50 mV, 4 cells, control -2.1", "value": -6.3, "unit": "pA"}, {"measurement": "L-type calcium current amplitude, MEAN", "setting": "[1]; 1 µM, test potential 55 mV, 4 cells, control 73.5", "value": 65.1, "unit": "pA"}, {"measurement": "L-type calcium current amplitude, MEAN", "setting": "[1]; 1 µM, test potential -5 mV, 5 cells, control -1356.0", "value": -1228.2, "unit": "pA"}, {"measurement": "L-type calcium current amplitude, MEAN", "setting": "[1]; 1 µM, test potential -10 mV, 5 cells, control -1170.3", "value": -1150.4, "unit": "pA"}, {"measurement": "L-type calcium current amplitude, MEAN", "setting": "[1]; 1 µM, test potential -15 mV, 5 cells, control -958.3", "value": -852.5, "unit": "pA"}, {"measurement": "L-type calcium current amplitude, MEAN", "setting": "[1]; 1 µM, test potential -20 mV, 5 cells, control -659.5", "value": -595.2, "unit": "pA"}, {"measurement": "L-type calcium current amplitude, MEAN", "setting": "[1]; 1 µM, test potential -25 mV, 5 cells, control -416.8", "value": -428.2, "unit": "pA"}, {"measurement": "L-type calcium current amplitude, MEAN", "setting": "[1]; 1 µM, test potential -30 mV, 5 cells, control -247.1", "value": -254.7, "unit": "pA"}, {"measurement": "L-type calcium current amplitude, MEAN", "setting": "[1]; 1 µM, test potential -35 mV, 5 cells, control -143.0", "value": -137.4, "unit": "pA"}, {"measurement": "effect on calcium current (ICaL) at various test potentials", "setting": "[1]; 10 µM, n=4, 6 cells", "value": "significantly decreased"}, {"measurement": "effect on calcium current (ICaL) at various test potentials", "setting": "[1]; 10 µM, n=4, 6 cells, listed as ORM-11372", "value": "moderately decreased"}, {"measurement": "L-type calcium current amplitude, MEAN", "setting": "[1]; 10 µM, test potential 0 mV, 6 cells, control -1895.4", "value": -1170.0, "unit": "pA"}, {"measurement": "L-type calcium current amplitude, MEAN", "setting": "[1]; 10 µM, test potential 5 mV, 6 cells, control -1875.0", "value": -1197.8, "unit": "pA"}, {"measurement": "L-type calcium current amplitude, MEAN", "setting": "[1]; 10 µM, test potential 10 mV, 6 cells, control -1771.9", "value": -1118.9, "unit": "pA"}, {"measurement": "L-type calcium current amplitude, MEAN", "setting": "[1]; 10 µM, test potential 15 mV, 6 cells, control -1587.7", "value": -1003.2, "unit": "pA"}, {"measurement": "L-type calcium current amplitude, MEAN", "setting": "[1]; 10 µM, test potential 20 mV, 6 cells, control -1357.7", "value": -873.9, "unit": "pA"}, {"measurement": "L-type calcium current amplitude, MEAN", "setting": "[1]; 10 µM, test potential 25 mV, 6 cells, control -1116.0", "value": -718.1, "unit": "pA"}, {"measurement": "L-type calcium current amplitude, MEAN", "setting": "[1]; 10 µM, test potential 30 mV, 6 cells, control -896.3", "value": -561.5, "unit": "pA"}, {"measurement": "L-type calcium current amplitude, MEAN", "setting": "[1]; 10 µM, test potential 35 mV, 6 cells, control -698.8", "value": -429.4, "unit": "pA"}, {"measurement": "L-type calcium current amplitude, MEAN", "setting": "[1]; 10 µM, test potential 40 mV, 6 cells, control -525.3", "value": -320.9, "unit": "pA"}, {"measurement": "L-type calcium current amplitude, MEAN", "setting": "[1]; 10 µM, test potential 45 mV, 6 cells, control -374.5", "value": -237.0, "unit": "pA"}, {"measurement": "L-type calcium current amplitude, MEAN", "setting": "[1]; 10 µM, test potential 50 mV, 6 cells, control -291.0", "value": -189.1, "unit": "pA"}, {"measurement": "L-type calcium current amplitude, MEAN", "setting": "[1]; 10 µM, test potential 55 mV, 6 cells, control -158.4", "value": -114.5, "unit": "pA"}, {"measurement": "L-type calcium current amplitude, MEAN", "setting": "[1]; 10 µM, test potential -5 mV, 6 cells, control -1762.2", "value": -1043.1, "unit": "pA"}, {"measurement": "L-type calcium current amplitude, MEAN", "setting": "[1]; 10 µM, test potential -10 mV, 6 cells, control -1447.7", "value": -807.4, "unit": "pA"}, {"measurement": "L-type calcium current amplitude, MEAN", "setting": "[1]; 10 µM, test potential -15 mV, 6 cells, control -1127.6", "value": -525.5, "unit": "pA"}, {"measurement": "L-type calcium current amplitude, MEAN", "setting": "[1]; 10 µM, test potential -20 mV, 6 cells, control -920.0", "value": -316.1, "unit": "pA"}, {"measurement": "L-type calcium current amplitude, MEAN", "setting": "[1]; 10 µM, test potential -25 mV, 6 cells, control -667.6", "value": -184.1, "unit": "pA"}, {"measurement": "L-type calcium current amplitude, MEAN", "setting": "[1]; 10 µM, test potential -30 mV, 6 cells, control -368.9", "value": -115.9, "unit": "pA"}, {"measurement": "L-type calcium current amplitude, MEAN", "setting": "[1]; 10 µM, test potential -35 mV, 6 cells, control -156.2", "value": -64.1, "unit": "pA"}, {"measurement": "inhibition at 1 µM", "setting": "[1]; rat CMs, 1 μM, 0 mV, read-out: inhibition of inward I CaL", "value": 7.8, "unit": "%"}, {"measurement": "inhibition at 10 µM", "setting": "[1]; test potentials 0 to 40 mV", "value": "36 to 39", "unit": "%"}, {"measurement": "inhibition at 10 µM", "setting": "[1]; test potentials −35 to −20 mV", "value": "59 to 69", "unit": "%"}, {"measurement": "half relaxation time", "setting": "[2]", "value": "unchanged; also recorded: did not affect"}, {"measurement": "twitch tension", "setting": "[2]; compared with vehicle", "value": "increased"}]}]}
